Here are results for 2 substances from patent US20060004185A1, “Peptide antibiotics and peptide intermediates for their prepartion” (priority 2004, published 2006).

For series [1] the following is noted: cited from earlier work.
In series [2] the test system is Staphylococcus aureus Smith. As to the kind of experiment: MIC, serial twofold broth dilution in Mueller Hinton broth. In kind it is cell-based.
Series [3] concerns Escherichia coli, ATCC #26. The description is as above. The format is cell-based. As to conditions: Escherichia coli ATCC #26, Mueller Hinton broth.

For the substance Polymyxin B [reference compound], the renal toxicity entry in series [1] (patients, recommended dosing) was “Some renal toxicity was observed”. The Staph MIC in series [2] is over 10 µg/mL. In addition, in series [3], the “E. coli MIC” value was determined as 0.6 micrograms per milliliter.

As to colistin, the “overall incidence of neurotoxicity” value in series [1] (human, in vivo) is recorded as 7.3%.
